From patent US12049483B2, “Selective and noncovalent inhibitors of oncogenic RAS mutants” (New York University, priority 2020, dated 2024) come the findings set out here.

For test [1], the system named is RAS-mediated signaling (pERK). In words: ERK activation in HEK293T cells co-expressing monobody and RAS mutants. The class given is cell-based. The note with it: expressed intracellularly as a genetically encoded reagent. Here is the method: Transient expression of KRAS and monobody for confocal imaging and signaling experiments. HEK293T cells were cultured in glass-bottom 8-well chambers (ibidi GmbH) for colocalization assays or in a 12-well plate for signaling assays for one day prior to transfection. On the day of transfection at 70-90% confluency, media were replaced with antibiotics-free complete media (DMEM supplemented with 10% FBS). Transfection of pEGFP vectors encoding the appropriate mCherry fused monobodies and EGFP fused KRAS4B constructs was performed with lipofectamine 3000 (Thermo Fisher Scientific) and according to the manufacturer's recommended protocol. […]
Cell signaling assay and quantification of immunoblots. […] The supernatant was collected and measured for total protein amount using BCA assay (Thermo Scientific; 23227). […] The proteins were then transferred from the gel to a low fluorescence background PVDF membrane (Millipore; IPFL00010) or regular PVDF membrane (Millipore; ISEQ00010) depending on whether fluorescence or chemiluminescence detection was performed. Phospho-ERK was detected using a rabbit anti-pERK antibody (Cell Signaling; 9101S) and total ERK was detected using a rabbit anti-ERK antibody (Cell Signaling; 9102S). Monobody expression was detected using mouse anti-Flag antibody (Sigma; F3165) or anti-HA tag antibody (BioLegend; 901516). […]

For test [2], the system named is endogenous KRAS from PATU8902 (KRAS(G12V)) and H358 (KRAS(G12C)). As to the kind of experiment: Pull-down assay with biotinylated 12VC1 from cell lysates. The note with it: PATU8902 and H358 lysates vs growth factor stimulated HEK293T (wild-type RAS). The class given is binding. The procedure: Pull-down assays. H358, PATU8902, and HEK293T cells were cultured in 10 cm plates (Corning, #430167). H358 and PATU8902 cells were treated with and without ARS1620 (SelleckChem, 58707) at a final concentration of 10 μM for 1.5 hours, and HEK293T cells were treated with EGF (PeproTech; AF-100-15) at a final concentration of 50 ng/mL for 4 minutes. Cells were lysed by incubating them on ice for 15 minutes in GTPase lysis buffer (25 mM Tris-Cl pH 7.2, 150 mM NaCl, 5 mM MgCl2, 1% NP-40 and 5% glycerol supplemented with protease tablet (Roche, 5892991001) and phosphatase inhibitors (1 mM sodium orthovanadate, 10 mM NAF, 54 mM β-glycerol phosphate)) immediately before analysis. After centrifugation for 15 minutes at 15,000 g, the supernatants were collected and incubated with SA agarose resins (Thermo Fisher Scientific) for 1 hour at 4° C. to remove non-specific binders to the resins. After the removal of resins via centrifugation, the pre-cleared lysates were then incubated with biotinylated monobodies bound to SA agarose resins for 3 hours at 4° C. while rotating. The agarose resins were then washed twice with the GTPase lysis buffer and boiled in 1×SDS buffer with 37.5 mM β-mercaptoethanol and processed for Western blotting using a pan-RAS antibody (Santa Cruz Biotechnology, C-4).

In a further test the test system is ERK activation (pERK). In words: ERK activation in dox-inducible monobody-expressing cell lines. The class given is cell-based. The procedure:
Cell signaling assay and quantification of immunoblots. Cells were lysed in RIPA buffer (50 mM Tris-Cl pH 8, 150 mM NaCl, 5 mM EDTA pH8, 0.1% SDS, 1% NP40) supplemented with protease inhibitors (Roche; 5892991001) and phosphatase inhibitors (54 mM β-glycerophosphate, 10 mM NaF, 1 mM sodium vanadate) for 15 minutes on ice, and centrifuged at 15,000 g for 15 minutes. The supernatant was collected and measured for total protein amount using BCA assay (Thermo Scientific; 23227). Lysate (7-20 μg per well) was loaded onto a pre-cast SDS gel (BioRad; 456-1096) followed by electrophoresis. The proteins were then transferred from the gel to a low fluorescence background PVDF membrane (Millipore; IPFL00010) or regular PVDF membrane (Millipore; ISEQ00010) depending on whether fluorescence or chemiluminescence detection was performed. Phospho-ERK was detected using a rabbit anti-pERK antibody (Cell Signaling; 9101S) and total ERK was detected using a rabbit anti-ERK antibody (Cell Signaling; 9102S). Monobody expression was detected using mouse anti-Flag antibody (Sigma; F3165) or anti-HA tag antibody (BioLegend; 901516). Loading control was detected with primary antibody against tubulin-alpha (Thermo Scientific, 62204) or against cytochrome oxidase (COX IV) (Li-Cor, 926-42214). The total RAS level was detected using a pan-RAS antibody (SCBT, sc-166691). The KRAS level was determined using a KRAS-specific antibody (Sigma, WH0003845M1). For fluorescence detection of immunoblots, the membranes were imaged with a Licor Odyssey Clx imager (Li-Cor Bioscience) using IRDye anti-Rabbit 800CW and anti-Mouse 680LT (Li-Cor Bioscience, 926-32211 and 926-68020, respectively) as secondary antibodies. […] Band intensities of western blot were analyzed with Image Studio Lite version 5.2 (Li-Cor Bioscience). To quantify protein abundance in the degradation experiment, the intensities of pERK, RAS, KRAS, and Flag/HA tag bands were first normalized against the loading control of the perspective blot, which were either tubulin-α, COX IV or total ERK, followed by subsequent normalization to the zero time point. […]

On to “VSSVPTKLEVVAATPTSLLISWDAPAVTVFFYVITYGETGHGVGAFQAFKVPGSKSTATISGLKPGVDYTITVYARGYSKQGPYKPSPISINYRT [12VC1]”, for which the RAS-mediated signaling entry in test [1] was “potently inhibited”. The “capture of endogenous KRAS in pull-down” value in test [2] was “selectively captured endogenous KRAS”. The “ERK activation in H358 cells” value in the test on ERK activation (pERK) (H358, after 24 and 48 hours, dox-induced expression or ARS1620 treatment) is recorded as “effectively inhibited”. Besides, in the test on ERK activation (pERK) (KRAS(G12C) (H358 and H23) and KRAS(G12V) (PATU8902 and H441) cell lines, dox-induced expression), the ERK activation entry was “potently inhibited”.
